Tested on: not given
Assay: not given
Details: not given

Compound	melting point
COC(=O)c1nc(-c2ccc3nsnc3c2)c(F)c(N)c1Cl [Compound 11]	196 to 198 °C

Tested on: CYPES: yellow nutsedge (Cyperus esculentus)
Assay: Post-Emergent Test II herbicidal activity
Type: in vivo
Details: post-emergence, 336 h, 35 g ai/ha, 14 days, read-out: Visual Growth Reduction (%) 14 Days After Application CYPES
Method in brief: (§1)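 Visual injury rating (0 = no injury, 100 = complete kill) taken 14 d after post-emergent foliar spray, relative to untreated plants. Seedlings at first/second true leaf stage; spray volume 187 L/ha; rates from highest down to 1/16× by serial dilution; subirrigation after treatment.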

Compound	pest or weed control at 35 g/ha
COC(=O)c1nc(-c2ccc3nsnc3c2)c(F)c(N)c1Cl [Compound 11]	95 to 100%

Same assay, conditions: post-emergence, 336 h, 70 g ai/ha, 14 days, read-out: Visual Growth Reduction (%) 14 Days After Application CYPES

Compound	pest or weed control at 70 g/ha
COC(=O)c1nc(-c2ccc3nsnc3c2)c(F)c(N)c1Cl [Compound 11]	95 to 100%

Same assay, conditions: post-emergence, 336 h, 140 g ai/ha, 14 days, read-out: Visual Growth Reduction (%) 14 Days After Application CYPES

Compound	pest or weed control at 140 g/ha
COC(=O)c1nc(-c2ccc3nsnc3c2)c(F)c(N)c1Cl [Compound 11]	95 to 100%

Tested on: ORYSA: rice (Oryza sativa)
Assay: Post-Emergent Test II herbicidal activity
Type: in vivo
Details: post-emergence, 336 h, 35 g ai/ha, 14 days, read-out: Visual Growth Reduction (%) 14 Days After Application ORYSA
Method in brief: as §1

Compound	pest or weed control at 35 g/ha
COC(=O)c1nc(-c2ccc3nsnc3c2)c(F)c(N)c1Cl [Compound 11]	0 to 29%

Same assay, conditions: post-emergence, 336 h, 70 g ai/ha, 14 days, read-out: Visual Growth Reduction (%) 14 Days After Application ORYSA

Compound	pest or weed control at 70 g/ha
COC(=O)c1nc(-c2ccc3nsnc3c2)c(F)c(N)c1Cl [Compound 11]	0 to 29%

Same assay, conditions: post-emergence, 336 h, 140 g ai/ha, 14 days, read-out: Visual Growth Reduction (%) 14 Days After Application ORYSA

Compound	pest or weed control at 140 g/ha
COC(=O)c1nc(-c2ccc3nsnc3c2)c(F)c(N)c1Cl [Compound 11]	0 to 29%

Tested on: ZEAMX: maize, corn (Zea mays)
Assay: Post-Emergent Test II herbicidal activity
Type: in vivo
Details: post-emergence, 336 h, 35 g ai/ha, 14 days, read-out: Visual Growth Reduction (%) 14 Days After Application ZEAMX
Method in brief: as §1

Compound	pest or weed control at 35 g/ha
COC(=O)c1nc(-c2ccc3nsnc3c2)c(F)c(N)c1Cl [Compound 11]	60 to 74%

Same assay, conditions: post-emergence, 336 h, 70 g ai/ha, 14 days, read-out: Visual Growth Reduction (%) 14 Days After Application ZEAMX

Compound	pest or weed control at 70 g/ha
COC(=O)c1nc(-c2ccc3nsnc3c2)c(F)c(N)c1Cl [Compound 11]	60 to 74%

Same assay, conditions: post-emergence, 336 h, 140 g ai/ha, 14 days, read-out: Visual Growth Reduction (%) 14 Days After Application ZEAMX

Compound	pest or weed control at 140 g/ha
COC(=O)c1nc(-c2ccc3nsnc3c2)c(F)c(N)c1Cl [Compound 11]	75 to 84%

Tested on: AMARE: redroot pigweed (Amaranthus retroflexus)
Assay: Post-Emergent Test II herbicidal activity
Type: in vivo
Details: post-emergence, 336 h, 35 g ai/ha, 14 days, read-out: Visual Growth Reduction (%) 14 Days After Application AMARE
Method in brief: as §1

Compound	pest or weed control at 35 g/ha
COC(=O)c1nc(-c2ccc3nsnc3c2)c(F)c(N)c1Cl [Compound 11]	95 to 100%

Same assay, conditions: post-emergence, 336 h, 70 g ai/ha, 14 days, read-out: Visual Growth Reduction (%) 14 Days After Application AMARE

Compound	pest or weed control at 70 g/ha
COC(=O)c1nc(-c2ccc3nsnc3c2)c(F)c(N)c1Cl [Compound 11]	95 to 100%

Same assay, conditions: post-emergence, 336 h, 140 g ai/ha, 14 days, read-out: Visual Growth Reduction (%) 14 Days After Application AMARE

Compound	pest or weed control at 140 g/ha
COC(=O)c1nc(-c2ccc3nsnc3c2)c(F)c(N)c1Cl [Compound 11]	95 to 100%

Tested on: ECHCG: barnyardgrass (Echinochloa crus-galli)
Assay: Post-Emergent Test II herbicidal activity
Type: in vivo
Details: post-emergence, 336 h, 35 g ai/ha, 14 days, read-out: Visual Growth Reduction (%) 14 Days After Application ECHCG
Method in brief: as §1

Compound	pest or weed control at 35 g/ha
COC(=O)c1nc(-c2ccc3nsnc3c2)c(F)c(N)c1Cl [Compound 11]	85 to 94%

Same assay, conditions: post-emergence, 336 h, 70 g ai/ha, 14 days, read-out: Visual Growth Reduction (%) 14 Days After Application ECHCG

Compound	pest or weed control at 70 g/ha
COC(=O)c1nc(-c2ccc3nsnc3c2)c(F)c(N)c1Cl [Compound 11]	95 to 100%

Same assay, conditions: post-emergence, 336 h, 140 g ai/ha, 14 days, read-out: Visual Growth Reduction (%) 14 Days After Application ECHCG

Compound	pest or weed control at 140 g/ha
COC(=O)c1nc(-c2ccc3nsnc3c2)c(F)c(N)c1Cl [Compound 11]	95 to 100%

Tested on: TRZAS: wheat, spring (Triticum aestivum)
Assay: Post-Emergent Test II herbicidal activity
Type: in vivo
Details: post-emergence, 336 h, 35 g ai/ha, 14 days, read-out: Visual Growth Reduction (%) 14 Days After Application TRZAS
Method in brief: as §1

Compound	pest or weed control at 35 g/ha
COC(=O)c1nc(-c2ccc3nsnc3c2)c(F)c(N)c1Cl [Compound 11]	0 to 29%

Same assay, conditions: post-emergence, 336 h, 70 g ai/ha, 14 days, read-out: Visual Growth Reduction (%) 14 Days After Application TRZAS

Compound	pest or weed control at 70 g/ha
COC(=O)c1nc(-c2ccc3nsnc3c2)c(F)c(N)c1Cl [Compound 11]	0 to 29%

Same assay, conditions: post-emergence, 336 h, 140 g ai/ha, 14 days, read-out: Visual Growth Reduction (%) 14 Days After Application TRZAS

Compound	pest or weed control at 140 g/ha
COC(=O)c1nc(-c2ccc3nsnc3c2)c(F)c(N)c1Cl [Compound 11]	0 to 29%

Tested on: SETFA: giant foxtail (Setaria faberi)
Assay: Post-Emergent Test II herbicidal activity
Type: in vivo
Details: post-emergence, 336 h, 35 g ai/ha, 14 days, read-out: Visual Growth Reduction (%) 14 Days After Application SETFA
Method in brief: as §1

Compound	pest or weed control at 35 g/ha
COC(=O)c1nc(-c2ccc3nsnc3c2)c(F)c(N)c1Cl [Compound 11]	45 to 59%

Same assay, conditions: post-emergence, 336 h, 70 g ai/ha, 14 days, read-out: Visual Growth Reduction (%) 14 Days After Application SETFA

Compound	pest or weed control at 70 g/ha
COC(=O)c1nc(-c2ccc3nsnc3c2)c(F)c(N)c1Cl [Compound 11]	85 to 94%

Same assay, conditions: post-emergence, 336 h, 140 g ai/ha, 14 days, read-out: Visual Growth Reduction (%) 14 Days After Application SETFA

Compound	pest or weed control at 140 g/ha
COC(=O)c1nc(-c2ccc3nsnc3c2)c(F)c(N)c1Cl [Compound 11]	85 to 94%

Tested on: CHEAL: lambsquarters (Chenopodium album)
Assay: Post-Emergent Test II herbicidal activity
Type: in vivo
Details: post-emergence, 336 h, 35 g ai/ha, 14 days, read-out: Visual Growth Reduction (%) 14 Days After Application CHEAL
Method in brief: as §1

Compound	pest or weed control at 35 g/ha
COC(=O)c1nc(-c2ccc3nsnc3c2)c(F)c(N)c1Cl [Compound 11]	85 to 94%

Same assay, conditions: post-emergence, 336 h, 70 g ai/ha, 14 days, read-out: Visual Growth Reduction (%) 14 Days After Application CHEAL

Compound	pest or weed control at 70 g/ha
COC(=O)c1nc(-c2ccc3nsnc3c2)c(F)c(N)c1Cl [Compound 11]	95 to 100%

Same assay, conditions: post-emergence, 336 h, 140 g ai/ha, 14 days, read-out: Visual Growth Reduction (%) 14 Days After Application CHEAL

Compound	pest or weed control at 140 g/ha
COC(=O)c1nc(-c2ccc3nsnc3c2)c(F)c(N)c1Cl [Compound 11]	95 to 100%

Tested on: BRSNN: oilseed rape, canola (Brassica napus)
Assay: Post-Emergent Test II herbicidal activity
Type: in vivo
Details: post-emergence, 336 h, 35 g ai/ha, 14 days, read-out: Visual Growth Reduction (%) 14 Days After Application BRSNN
Method in brief: as §1

Compound	pest or weed control at 35 g/ha
COC(=O)c1nc(-c2ccc3nsnc3c2)c(F)c(N)c1Cl [Compound 11]	60 to 74%

Same assay, conditions: post-emergence, 336 h, 70 g ai/ha, 14 days, read-out: Visual Growth Reduction (%) 14 Days After Application BRSNN

Compound	pest or weed control at 70 g/ha
COC(=O)c1nc(-c2ccc3nsnc3c2)c(F)c(N)c1Cl [Compound 11]	75 to 84%

Same assay, conditions: post-emergence, 336 h, 140 g ai/ha, 14 days, read-out: Visual Growth Reduction (%) 14 Days After Application BRSNN

Compound	pest or weed control at 140 g/ha
COC(=O)c1nc(-c2ccc3nsnc3c2)c(F)c(N)c1Cl [Compound 11]	75 to 84%

Tested on: EPHHL: wild poinsettia (Euphorbia heterophylla)
Assay: Post-Emergent Test II herbicidal activity
Type: in vivo
Details: post-emergence, 336 h, 35 g ai/ha, 14 days, read-out: Visual Growth Reduction (%) 14 Days After Application EPHHL
Method in brief: as §1

Compound	pest or weed control at 35 g/ha
COC(=O)c1nc(-c2ccc3nsnc3c2)c(F)c(N)c1Cl [Compound 11]	95 to 100%

Same assay, conditions: post-emergence, 336 h, 70 g ai/ha, 14 days, read-out: Visual Growth Reduction (%) 14 Days After Application EPHHL

Compound	pest or weed control at 70 g/ha
COC(=O)c1nc(-c2ccc3nsnc3c2)c(F)c(N)c1Cl [Compound 11]	95 to 100%

Same assay, conditions: post-emergence, 336 h, 140 g ai/ha, 14 days, read-out: Visual Growth Reduction (%) 14 Days After Application EPHHL

Compound	pest or weed control at 140 g/ha
COC(=O)c1nc(-c2ccc3nsnc3c2)c(F)c(N)c1Cl [Compound 11]	95 to 100%

Tested on: HELAN: sunflower (Helianthus annuus)
Assay: Post-Emergent Test II herbicidal activity
Type: in vivo
Details: post-emergence, 336 h, 35 g ai/ha, 14 days, read-out: Visual Growth Reduction (%) 14 Days After Application HELAN
Method in brief: as §1

Compound	pest or weed control at 35 g/ha
COC(=O)c1nc(-c2ccc3nsnc3c2)c(F)c(N)c1Cl [Compound 11]	85 to 94%

Same assay, conditions: post-emergence, 336 h, 70 g ai/ha, 14 days, read-out: Visual Growth Reduction (%) 14 Days After Application HELAN

Compound	pest or weed control at 70 g/ha
COC(=O)c1nc(-c2ccc3nsnc3c2)c(F)c(N)c1Cl [Compound 11]	85 to 94%

Same assay, conditions: post-emergence, 336 h, 140 g ai/ha, 14 days, read-out: Visual Growth Reduction (%) 14 Days After Application HELAN

Compound	pest or weed control at 140 g/ha
COC(=O)c1nc(-c2ccc3nsnc3c2)c(F)c(N)c1Cl [Compound 11]	95 to 100%

Tested on: ABUTH: velvetleaf (Abutilon theophrasti)
Assay: Post-Emergent Test II herbicidal activity
Type: in vivo
Details: post-emergence, 336 h, 35 g ai/ha, 14 days, read-out: Visual Growth Reduction (%) 14 Days After Application ABUTH
Method in brief: as §1

Compound	pest or weed control at 35 g/ha
COC(=O)c1nc(-c2ccc3nsnc3c2)c(F)c(N)c1Cl [Compound 11]	85 to 94%

Same assay, conditions: post-emergence, 336 h, 70 g ai/ha, 14 days, read-out: Visual Growth Reduction (%) 14 Days After Application ABUTH

Compound	pest or weed control at 70 g/ha
COC(=O)c1nc(-c2ccc3nsnc3c2)c(F)c(N)c1Cl [Compound 11]	95 to 100%

Same assay, conditions: post-emergence, 336 h, 140 g ai/ha, 14 days, read-out: Visual Growth Reduction (%) 14 Days After Application ABUTH

Compound	pest or weed control at 140 g/ha
COC(=O)c1nc(-c2ccc3nsnc3c2)c(F)c(N)c1Cl [Compound 11]	95 to 100%

From patent US9006250B2, “4-amino-6-(heterocyclic)picolinates and 6-amino-2-(heterocyclic)pyrimidine-4-carboxylates and their use as herbicides” (Dow AgroSciences, LLC, priority 2013, dated 2015)
